Experiment [1] has as its target RAC-alpha serine/threonine-protein kinase (Homo sapiens, UniProt P31749).
For experiment [2], the target named is T1, Calcium/calmodulin-dependent protein kinase type IV (Homo sapiens, UniProt Q16566).
T1 sequence (Q16566 whole entry): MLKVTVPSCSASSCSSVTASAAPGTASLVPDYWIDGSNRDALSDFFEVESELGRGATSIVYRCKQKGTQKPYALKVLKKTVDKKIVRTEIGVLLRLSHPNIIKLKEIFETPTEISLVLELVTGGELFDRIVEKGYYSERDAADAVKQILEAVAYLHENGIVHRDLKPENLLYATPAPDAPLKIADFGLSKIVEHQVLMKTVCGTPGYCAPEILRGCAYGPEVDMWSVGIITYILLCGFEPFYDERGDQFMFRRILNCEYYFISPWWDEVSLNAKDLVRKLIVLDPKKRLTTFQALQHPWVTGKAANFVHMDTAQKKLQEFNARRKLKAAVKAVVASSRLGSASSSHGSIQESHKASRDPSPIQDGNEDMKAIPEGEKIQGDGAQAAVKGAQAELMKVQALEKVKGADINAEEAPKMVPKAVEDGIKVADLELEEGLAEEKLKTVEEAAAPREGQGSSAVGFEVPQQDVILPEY

Experiment [3] addresses T2, dCTP pyrophosphatase 1 (Homo sapiens, UniProt Q9H773).
T2 sequence (Q9H773 whole entry): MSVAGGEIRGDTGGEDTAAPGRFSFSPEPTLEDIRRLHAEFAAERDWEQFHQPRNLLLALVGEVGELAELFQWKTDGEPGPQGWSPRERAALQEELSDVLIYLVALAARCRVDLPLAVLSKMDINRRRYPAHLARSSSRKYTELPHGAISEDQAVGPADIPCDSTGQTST

The target of experiment [4] is T3, Ribosyldihydronicotinamide dehydrogenase [quinone] (Homo sapiens, UniProt P16083).
T3 sequence (P16083 whole entry): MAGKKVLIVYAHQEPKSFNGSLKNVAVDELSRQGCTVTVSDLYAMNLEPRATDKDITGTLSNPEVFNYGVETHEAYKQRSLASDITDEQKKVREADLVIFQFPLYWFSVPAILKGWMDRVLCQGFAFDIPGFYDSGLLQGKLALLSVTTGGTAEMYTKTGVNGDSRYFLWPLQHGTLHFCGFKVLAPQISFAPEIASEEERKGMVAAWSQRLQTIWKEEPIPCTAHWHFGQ

The target in experiment [5] is T4, Phosphatidylinositol 5-phosphate 4-kinase type-2 alpha (Homo sapiens, UniProt P48426).
T4 sequence (P48426 whole entry): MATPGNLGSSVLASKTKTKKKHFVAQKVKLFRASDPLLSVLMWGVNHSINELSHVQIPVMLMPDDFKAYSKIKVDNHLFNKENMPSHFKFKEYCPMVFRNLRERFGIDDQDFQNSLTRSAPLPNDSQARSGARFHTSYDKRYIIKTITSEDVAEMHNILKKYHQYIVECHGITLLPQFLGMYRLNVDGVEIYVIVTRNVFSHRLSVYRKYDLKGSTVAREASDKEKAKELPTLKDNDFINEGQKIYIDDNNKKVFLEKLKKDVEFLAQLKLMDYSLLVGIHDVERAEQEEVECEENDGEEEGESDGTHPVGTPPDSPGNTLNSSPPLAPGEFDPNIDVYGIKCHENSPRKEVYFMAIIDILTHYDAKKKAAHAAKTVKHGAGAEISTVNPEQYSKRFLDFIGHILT

Experiment [6] deals with T5, Serine/threonine-protein kinase D3 (Homo sapiens, UniProt O94806).
T5 sequence (O94806 whole entry): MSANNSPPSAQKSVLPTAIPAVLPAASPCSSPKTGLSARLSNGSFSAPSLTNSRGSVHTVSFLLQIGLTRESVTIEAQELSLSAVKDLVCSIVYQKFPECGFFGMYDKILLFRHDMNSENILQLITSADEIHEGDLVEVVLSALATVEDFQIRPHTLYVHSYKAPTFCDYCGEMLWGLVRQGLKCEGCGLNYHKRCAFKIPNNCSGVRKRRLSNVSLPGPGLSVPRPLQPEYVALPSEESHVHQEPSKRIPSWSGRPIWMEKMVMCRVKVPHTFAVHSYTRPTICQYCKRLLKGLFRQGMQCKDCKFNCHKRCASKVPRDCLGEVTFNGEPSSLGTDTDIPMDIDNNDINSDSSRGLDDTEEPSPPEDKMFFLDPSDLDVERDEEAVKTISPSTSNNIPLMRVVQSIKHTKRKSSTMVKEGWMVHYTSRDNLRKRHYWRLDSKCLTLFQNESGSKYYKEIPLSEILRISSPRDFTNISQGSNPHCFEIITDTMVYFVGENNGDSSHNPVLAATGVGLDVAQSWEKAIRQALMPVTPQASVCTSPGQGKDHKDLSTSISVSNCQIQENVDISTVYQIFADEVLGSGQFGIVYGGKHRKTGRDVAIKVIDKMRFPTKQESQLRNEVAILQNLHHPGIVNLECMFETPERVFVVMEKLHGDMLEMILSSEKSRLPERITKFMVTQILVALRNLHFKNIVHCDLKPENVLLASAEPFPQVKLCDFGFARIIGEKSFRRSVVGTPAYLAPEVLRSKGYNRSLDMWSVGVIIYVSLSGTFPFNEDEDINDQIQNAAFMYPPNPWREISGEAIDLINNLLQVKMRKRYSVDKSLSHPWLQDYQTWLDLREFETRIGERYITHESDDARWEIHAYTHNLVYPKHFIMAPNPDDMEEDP

For experiment [7], the target named is Ribosomal protein S6 kinase alpha-6 (Homo sapiens, UniProt Q9UK32).
Experiment [8] has as its target T6, ADP/ATP translocase 3 (Homo sapiens, UniProt P12236).
T6 sequence (P12236 whole entry): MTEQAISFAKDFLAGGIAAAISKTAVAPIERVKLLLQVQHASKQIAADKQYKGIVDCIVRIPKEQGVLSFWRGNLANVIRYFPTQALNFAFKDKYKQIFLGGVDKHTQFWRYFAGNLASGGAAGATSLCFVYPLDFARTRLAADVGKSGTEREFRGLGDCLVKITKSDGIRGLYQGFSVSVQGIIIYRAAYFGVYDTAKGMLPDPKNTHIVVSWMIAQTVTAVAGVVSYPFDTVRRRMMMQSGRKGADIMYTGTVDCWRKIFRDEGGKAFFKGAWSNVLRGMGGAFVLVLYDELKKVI

Molecules are shown by their SMILES. Active and inactive are the calls of the source.
Further: in the data inactive means no Kd found up to 30 µM.

Chain of RAC-alpha serine/threonine-protein kinase (P31749 whole entry): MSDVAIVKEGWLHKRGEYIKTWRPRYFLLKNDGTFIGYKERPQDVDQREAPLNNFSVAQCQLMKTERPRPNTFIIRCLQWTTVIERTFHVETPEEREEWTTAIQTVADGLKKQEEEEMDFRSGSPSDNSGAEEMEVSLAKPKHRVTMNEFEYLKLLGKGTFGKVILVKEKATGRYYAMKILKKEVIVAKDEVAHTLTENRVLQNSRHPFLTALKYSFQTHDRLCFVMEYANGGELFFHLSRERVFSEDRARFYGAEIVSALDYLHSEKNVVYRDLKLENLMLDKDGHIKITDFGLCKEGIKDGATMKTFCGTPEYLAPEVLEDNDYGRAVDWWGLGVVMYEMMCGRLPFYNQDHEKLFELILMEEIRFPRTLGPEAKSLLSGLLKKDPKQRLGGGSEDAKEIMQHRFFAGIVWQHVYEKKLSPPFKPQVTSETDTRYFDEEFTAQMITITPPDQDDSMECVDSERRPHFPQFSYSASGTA
Chain of Ribosomal protein S6 kinase alpha-6 (Q9UK32 whole entry): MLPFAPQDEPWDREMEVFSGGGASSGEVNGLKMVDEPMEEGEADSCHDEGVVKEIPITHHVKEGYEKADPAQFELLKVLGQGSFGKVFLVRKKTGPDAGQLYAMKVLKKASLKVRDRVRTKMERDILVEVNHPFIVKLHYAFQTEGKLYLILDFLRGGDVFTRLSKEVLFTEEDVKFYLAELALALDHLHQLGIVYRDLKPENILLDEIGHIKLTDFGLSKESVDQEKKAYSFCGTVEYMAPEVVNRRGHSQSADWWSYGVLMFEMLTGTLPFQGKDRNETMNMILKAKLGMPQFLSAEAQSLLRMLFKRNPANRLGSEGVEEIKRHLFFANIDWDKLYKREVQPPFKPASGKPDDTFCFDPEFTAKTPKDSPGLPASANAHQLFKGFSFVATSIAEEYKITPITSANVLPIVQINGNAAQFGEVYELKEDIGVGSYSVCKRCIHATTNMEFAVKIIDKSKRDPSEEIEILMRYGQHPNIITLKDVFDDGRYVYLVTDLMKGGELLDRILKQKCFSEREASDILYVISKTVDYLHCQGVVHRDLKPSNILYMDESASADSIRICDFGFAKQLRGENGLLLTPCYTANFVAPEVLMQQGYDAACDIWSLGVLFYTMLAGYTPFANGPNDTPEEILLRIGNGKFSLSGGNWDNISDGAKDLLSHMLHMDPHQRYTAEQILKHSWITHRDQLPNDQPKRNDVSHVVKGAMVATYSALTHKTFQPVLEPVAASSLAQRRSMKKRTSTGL

For `CCn1cc(-c2ccnc3[nH]c(-c4cccc(CN(C)C)c4)cc23)c(-c2ccc(NC(=O)N(C)C)cc2)n1` [GSK-1070916], the Kd (in general, the equilibrium constant for the complex coming apart) was > 30 µM (inactive) in experiment [1]; > 30 µM (inactive) in experiment [2]; > 30 µM (inactive) in experiment [3]; > 30 µM (inactive) in experiment [4]; > 30 µM (inactive) in experiment [5]; 1.93 µM (active) in experiment [6]. The Kd in experiment [7] and in experiment [8] was > 30 µM (inactive) throughout.

Take `COc1ccc(S(=O)(=O)N(C(C)=O)c2ccccc2/C=C/c2cc[n+]([O-])cc2)cc1` [HMN-214]: the Kd in experiment [1], in experiment [2], in experiment [3], in experiment [4], in experiment [5] and in experiment [6] was > 30 µM (inactive) throughout. For the same compound, the Kd in experiment [7] and in experiment [8] was > 30 µM (inactive) in each case.

Take `O=C(Nc1cc(C(F)(F)F)cc(C(F)(F)F)c1)c1cc(Cl)ccc1O` [IMD-0354]: the Kd in experiment [1], in experiment [2], in experiment [3], in experiment [4], in experiment [5] and in experiment [6] was > 30 µM (inactive) throughout. For the same compound, the Kd in experiment [7] and in experiment [8] was > 30 µM (inactive) throughout.

As to `CNC(=O)c1cccc2cc(Oc3ccnc4cc(OCC5(N)CC5)c(OC)cc34)ccc12` [LUCITANIB], the Kd in experiment [1], in experiment [2], in experiment [3], in experiment [4], in experiment [5] and in experiment [6] was > 30 µM (inactive) each time. For the same compound, the Kd in experiment [7] and in experiment [8] was > 30 µM (inactive) each time.

With `CNC(=O)c1nn(C)c2c1C(C)(C)Cc1cnc(Nc3ccc(N4CCN(C)CC4)cc3)nc1-2` [MILCICLIB], the Kd in experiment [1] is > 30 µM (inactive); in experiment [2] it was > 30 µM (inactive); in experiment [3], 1.59 µM (active); in experiment [4] it was > 30 µM (inactive); in experiment [5] it was > 30 µM (inactive); in experiment [6], 0.135 µM (active). Also, the Kd in experiment [7] and in experiment [8] was > 30 µM (inactive) throughout.

Regarding `CN(C[C@@H]1COCCO1)S(=O)(=O)Nc1ccc2ccc3ncc(-c4cnn(C)c4)cc3c(=O)c2c1` [MK-2461], the Kd in experiment [1] is > 30 µM (inactive); in experiment [2], > 30 µM (inactive); in experiment [3], > 30 µM (inactive); in experiment [4], 52.6 µM (active); in experiment [5] it was > 30 µM (inactive); in experiment [6], > 30 µM (inactive). For the same compound, the Kd in experiment [7] and in experiment [8] was > 30 µM (inactive) each time.

For `Cn1cc(-c2cnc3ccc4ccc(CS(=O)(=O)NCc5ccccn5)cc4c(=O)c3c2)cn1` [MK-8033], the Kd in experiment [1], in experiment [2], in experiment [3], in experiment [4], in experiment [5] and in experiment [6] was > 30 µM (inactive) each time. In addition, the Kd in experiment [7] and in experiment [8] was > 30 µM (inactive) throughout.

Take `COc1ncc(-c2ccc3nccc(-c4ccnnc4)c3c2)cc1NS(=O)(=O)c1ccc(F)cc1F` [OMIPALISIB]: the Kd in experiment [1], in experiment [2], in experiment [3], in experiment [4], in experiment [5] and in experiment [6] was > 30 µM (inactive) in each case. The Kd in experiment [7] and in experiment [8] was > 30 µM (inactive) throughout.

In the case of `CCOc1cc2ncc(C#N)c(Nc3ccc(F)c(Cl)c3)c2cc1NC(=O)/C=C/CN(C)C` [PELITINIB], the Kd in experiment [1], in experiment [2], in experiment [3], in experiment [4], in experiment [5] and in experiment [6] was > 30 µM (inactive) throughout. The Kd in experiment [7] and in experiment [8] was > 30 µM (inactive) in each case.

Take `Cc1nc(Nc2n[nH]c3c2CN(C(=O)N[C@H](CN(C)C)c2ccccc2)C3(C)C)c2sccc2n1` [PF-03758309]: the Kd in experiment [1] was > 30 µM (inactive); in experiment [2], 0.408 µM (active); in experiment [3], > 30 µM (inactive); in experiment [4], > 30 µM (inactive); in experiment [5] it was > 30 µM (inactive); in experiment [6], 0.268 µM (active). The values for the Kd in experiment [7] and in experiment [8] were 0.004 µM (active) and > 30 µM (inactive), respectively.

As for `CNC(=O)c1cc(Oc2ccc(NC(=O)Nc3cc(C(C)(C)C)nn3-c3ccc4ncccc4c3)c(F)c2)ccn1` [REBASTINIB], the Kd in experiment [1], in experiment [2], in experiment [3], in experiment [4], in experiment [5] and in experiment [6] was > 30 µM (inactive) each time. For the same compound, the Kd in experiment [7] and in experiment [8] was > 30 µM (inactive) throughout.

Regarding `CO[C@H]1C[C@@H]2CC[C@@H](C)[C@@](O)(O2)C(=O)C(=O)N2CCCC[C@H]2C(=O)O[C@H]([C@H](C)C[C@@H]2CC[C@@H](OP(C)(C)=O)[C@H](OC)C2)CC(=O)[C@H](C)/C=C(\C)[C@@H](O)[C@@H](OC)C(=O)[C@H](C)C[C@H](C)/C=C/C=C/C=C/1C` [RIDAFOROLIMUS], the Kd in experiment [1], in experiment [2], in experiment [3], in experiment [4], in experiment [5] and in experiment [6] was > 30 µM (inactive) in each case. Besides, the Kd in experiment [7] and in experiment [8] was > 30 µM (inactive) in each case.
